Laboratory results taken from patent publication US20090306059A1, “CYCLIC AMINE DERIVATIVE HAVING SUBSTITUTED ALKYL GROUP” (priority 2005, published 2009).
Structures can show the parent of a compound that is named as a salt.

Key:
[1] = test system: platelet aggregation caused by ADP in platelet-rich plasma (PRP); experiment: Test Example 1: in vitro platelet aggregation inhibitory effect; format: cell-based, rat (male Sprague-Dawley); conditions: 10 μg/ml test compound; rat PRP; ADP final concentration 10 μM; maximum platelet aggregation ratio
Experimental: Male Sprague-Dawley rats (8-week old, Japan SLC, Inc.), 3 to 4 animals per group, were used for the test. The platelet aggregation was measured with an automatic platelet aggregometer (MCM Hema Tracer 313M, MC Medical, Inc.) by a partially modified method of Born et al., The Journal of Physiology, Vol. 168, Section 178 (1963). 6.3 ml of blood was sampled from the ventral aorta of a rat anesthetized with pentobarbital (40 mg/kg) using 3.8% (w/v) sodium citrate solution (0.7 ml) as an anticoagulant. The obtained blood containing citrate was centrifuged (230 g, 15 minutes, room temperature) to separate a platelet-rich plasma (hereinbelow abbreviated as PRP). The blood after the separation of PRP was further centrifuged (2,000 g, 10 minutes, room temperature) to separate a platelet-poor plasma (hereinbelow abbreviated as PPP). After the number of blood platelet in PRP was measured with a multi-item automatic blood corpuscle counter (KX-21N, Sysmex Corporation), PPP was added thereto to adjust the blood platelet count to 5×10^8/ml. After PRP (239 μl) was pipetted into cuvettes, test compounds (1 μl) dissolved in dimethylsulfoxide (DMSO) were added to PRP and the cuvettes were set in the automatic platelet aggregometer. DMSO (1 μl) was added in place of the test compounds for the control group. After preliminary warming (37° C.) for 1.5 minutes, 10 μl of adenosine 5′-diphosphate (ADP) solution (final concentration at 10 μM) was added to cause platelet aggregation. Platelet aggregation was measured for 5 minutes and the maximum platelet aggregation ratio was determined.

[2] = test system: platelet aggregation caused by ADP in platelet-rich plasma (PRP) after oral administration; experiment: Test Example 2: ex vivo platelet aggregation inhibitory effect; format: in vivo, rat (male Sprague-Dawley); conditions: 4 hours before blood sampling, rat PRP, ADP final concentration 3 μM, maximum platelet aggregation ratio; for inhibition at 10 mg/kg: 10 mg/kg orally, read-out: Test Example 1 (% inhibition) 10 mg/kg
Experimental: Male Sprague-Dawley rats (8-week old, Japan SLC, Inc.), 3 to 4 animals per group, were used for the test. The platelet aggregation was measured with an automatic platelet aggregometer (MCM Hema Tracer 313M, MC Medical, Inc.) by a partially modified method of Bom et al., The Journal of Physiology, Vol. 168, Section 178 (1963). Test compounds suspended in 5% Arabian gum solution or 10% dimethylacetamide/64% polyethylene glycol 400/16% Tween 80 solution were orally administered in a dose ratio of 1 mL/kg 4 hours before blood sampling. Vehicle was orally administered 4 hours in a dose ratio of 1 mL/kg before the sampling of the blood for the control group. 6.3 ml of blood was sampled from the ventral aorta of a rat anesthetized with pentobarbital (40 mg/kg) using 3.8% (w/v) sodium citrate solution (0.7 ml) as an anticoagulant. The obtained blood containing citrate was centrifuged (230 g, 15 minutes, room temperature) to separate PRP. The blood after the separation of PRP was further centrifuged (2,000 g, 10 minutes, room temperature) to separate PPP. After the number of blood platelet in PRP was measured with a multi-item automatic blood corpuscle counter (KX-21N, Sysmex Corporation), PPP was added thereto to adjust the blood platelet to 5×10^8/ml. After PRP (240 μl) was pipetted into cuvettes, the cuvettes were set in the automatic platelet aggregometer. After preliminary warming (37° C.) for 1.5 minutes, 10 μl of ADP solution (final concentration 3 μM) was added to cause platelet aggregation. Platelet aggregation was measured for 5 minutes and the maximum platelet aggregation ratio was determined.

Row | SMILES | inhibition at 10 µg/mL [1] | inhibition at 10 mg/kg [2] | inhibition at 3 mg/kg ([2]; 3 mg/kg orally, read-out: Test Example 1 (% inhibition) 3 mg/kg)
1 | O=C(O)CN1CCN(C/C=C2\CN(C(C(=O)C3CC3)c3ccccc3F)CCC2S)CC1=O (centres unmarked) [Example 15, (E)-3-{2-[4-(Carboxymethyl)-3-oxopiperazin-1-yl]ethylidene}-1-[2-cyclopropyl-1-(2-fluorophenyl)-2-oxoethyl]-4-sulfanylpiperidine dihydrochloride] | 90% | – | –
2 | COC(=O)CCN1CCN(C/C=C2\CN(C(C(=O)C3CC3)c3ccccc3F)CCC2S)CC1=O (centres unmarked) [Example 18, (E)-1-[2-Cyclopropyl-1-(2-fluorophenyl)-2-oxoethyl]-3-(2-{4-[2-(methoxycarbonyl)ethyl]-3-oxopiperazin-1-yl}ethylidene)-4-sulfanylpiperidine dihydrochloride] | 73% | 74% | –
3 | O=C(O)CCN1CCN(C/C=C2\CN(C(C(=O)C3CC3)c3ccccc3F)CCC2S)CC1=O (centres unmarked) [Example 19, (E)-3-(2-{4-[2-(Carboxyethyl)]-3-oxopiperazin-1-yl}ethylidene)-1-[2-cyclopropyl-1-(2-fluorophenyl)-2-oxoethyl]-4-sulfanylpiperidine dihydrochloride] | 77% | 60% | –
4 | CCOC(=O)CCN1CCN(C/C=C2\CN(C(C(=O)C3CC3)c3ccccc3F)CCC2S)C(=O)C1 (centres unmarked) [Example 22, (E)-1-[2-Cyclopropyl-1-(2-fluorophenyl)-2-oxoethyl]-3-(2-{4-[2-(ethoxycarbonyl)ethyl]-2-oxopiperazin-1-yl}ethylidene)-4-sulfanylpiperidine dihydrochloride] | 67% | 79% | –
5 | O=C(O)CCN1CCN(C/C=C2\CN(C(C(=O)C3CC3)c3ccccc3F)CCC2S)C(=O)C1 (centres unmarked) [Example 23, (E)-3-(2-{4-[2-(Carboxyethyl)]-2-oxopiperazin-1-yl}ethylidene)-1-[2-cyclopropyl-1-(2-fluorophenyl)-2-oxoethyl]-4-sulfanylpiperidine dihydrochloride] | 77% | 72% | –
6 | O=C(O)c1cnn(C/C=C2\CN(C(C(=O)C3CC3)c3ccccc3F)CCC2S)c1 (centres unmarked) [Example 44, (E)-3-[2-(4-Carboxy-1H-pyrazol-1-yl)ethylidene]-1-[2-cyclopropyl-1-(2-fluorophenyl)-2-oxoethyl]-4-sulfanylpiperidine hydrochloride] | 81% | – | 61%
7 | CCOC(=O)c1cn(C/C=C2\CN(C(C(=O)C3CC3)c3ccccc3F)CCC2S)nn1 (centres unmarked) [Example 50, (E)-1-[2-Cyclopropyl-1-(2-fluorophenyl)-2-oxoethyl]-3-[2-(4-ethoxycarbonyl-1H-1,2,3-triazol-1-yl)ethylidene]-4-sulfanylpiperidine hydrochloride] | 79% | – | –
8 | O=C(O)c1cn(C/C=C2\CN(C(C(=O)C3CC3)c3ccccc3F)CCC2S)nn1 (centres unmarked) [Example 51, (E)-3-[2-(4-Carboxy-1H-1,2,3-triazol-1-yl)ethylidene]-1-[2-cyclopropyl-1-(2-fluorophenyl)-2-oxoethyl]-4-sulfanylpiperidine hydrochloride] | 81% | – | –
9 | O=C(O)Cc1cnn(C/C=C2\CN(C(C(=O)C3CC3)c3ccccc3F)CCC2S)c1 (centres unmarked) [Example 74, (E)-3-{2-[4-(Carboxymethyl)-1H-pyrazol-1-yl]ethylidene}-1-[2-cyclopropyl-1-(2-fluorophenyl)-2-oxoethyl]-4-sulfanylpiperidine hydrochloride] | 80% | 100% | –
10 | CN(C/C=C1\CN(C(C(=O)C2CC2)c2ccccc2F)CCC1S)CC(=O)O (centres unmarked) [Example 83, (E)-3-{2-[N-(Carboxymethyl)-N-methylamino]ethylidene}-1-[2-cyclopropyl-1-(2-fluorophenyl)-2-oxoethyl]-4-sulfanylpiperidine dihydrochloride] | 68% | – | –
11 | CN(C/C=C1/CN(C(C(=O)C2CC2)c2ccccc2F)CCC1S)CC(=O)O (centres unmarked) [Example 86, (Z)-3-{2-[N-(Carboxymethyl)-N-methylamino]ethylidene}-1-[2-cyclopropyl-1-(2-fluorophenyl)-2-oxoethyl]-4-sulfanylpiperidine dihydrochloride] | 82% | – | –
12 | CN(C/C=C1/CN(C(C(=O)C2CC2)c2ccccc2F)CCC1S)CCCC(=O)O (centres unmarked) [Example 91, (Z)-3-(2-{N-[3-(Carboxy)propyl]-N-methylamino}ethylidene)-1-[2-cyclopropyl-1-(2-fluorophenyl)-2-oxoethyl]-4-sulfanylpiperidine dihydrochloride] | 74% | – | –
13 | O=C(O)c1cnn(C/C=C2/CN(C(C(=O)C3CC3)c3ccccc3F)CCC2S)c1 (centres unmarked) [Example 111, (Z)-3-[2-(4-Carboxy-1H-pyrazol-1-yl)ethylidene]-1-[2-cyclopropyl-1-(2-fluorophenyl)-2-oxoethyl]-4-sulfanylpiperidine hydrochloride] | 82% | 82% | –
